Data published in patent US4271189A, “Lithium derivatives of taurine having reinforced neuro-muscular activity” (Les Laboratoires Meram, priority 1977, dated 1981).
Where a name gives a salt, the structure may show the parent alone. Read-outs that look alike come from different tables or passages of the source.

Legend:
[1] = Motility of mice after amphetamine-acetyl-taurinate interaction (photoelectric actimeter); type: in vivo; conditions: mouse, with 10 mg/kg IP dextrorotatory amphetamine
Experimental: (§1) 3. The study of the motility of the mice was also made by using Boissier's photoelectric actimeter, after amphetamine-acetyl-taurinate interaction according to the invention: the mice are treated simultaneously with 10 mg/kg (IP) of dextrorotatory amphetamine and with an optimal dose of acetyltaurinate.

[2] = Investigation behaviour of the mouse, "Holed board" test; type: in vivo
Source text: (§2) 1. The investigation behaviour of the mouse was studied by the "Holed board" test (Boissier and Simon; Arch. Int. Pharmacodyn. 1964, 147, 3-4),

[3] = Neuro-muscular activity in the six pharmacological tests (summary); type: in vivo; conditions: mouse and rat
Experimental: as §2
(§3) 2. The study of the spontaneous motility of the mouse was made by using Boissier's photoelectric actimeter.
as §1
(§4) 4. A study of the hypothermia in the mouse was effected by determining the rectal temperature of the mice 30 mins. before the intraperitoneal administration of the product, at the moment of this administration, then 30 mins., 1 hour, 2, 3 and 4 hrs. after the injection of the product.
(§5) 5. The study of the hypothermia after amphetamine-acetyl-taurinate interaction according to the invention was made according to the same method as previously in the mouse, the animals being treated simultaneously with 30 mg/kg (IP) of dextrorotatory amphetamine and with an optimal dose of the product to be tested.
(§6) 6. A test was also made of the appetite- and thirst-depressant activities in the rat.

[4] = Spontaneous motility of the mouse, Boissier's photoelectric actimeter; type: in vivo
Source text: as §3

[5] = Acute toxicity (LD50) in the male mouse, intraperitoneal and oral routes
Source text: The acute toxicity of the compounds according to the invention was studied by the intraperitoneal route in the male mouse. The results obtained were as follows:
The value of lithium salts in the treatment of depressions and in particular of manic-depressive psychosis, is well-known. But the major disadvantage of this therapy resides in the toxicity of the currently known salts (carbonate, citrate, gluconate).

[6] = Test of morphinic agitation in mice; type: in vivo, mouse; conditions: for effect type in the morphinic agitation test: 5-day treatment, 100, 500 and 2500 mg/Kg per os
Source text: Furthermore, the neuro-muscular activity of the lithium N-acetyltaurinate has been evaluated in comparison with that of taurine and of the other salts of N-acetyltaurine, using the test of morphinic agitation.

[7] = Appetite- and thirst-depressant activities in the rat; type: in vivo
Source text: as §6

[8] = Chronic toxicity in rats over three months, renal histology; type: in vivo, rat
Experimental: A study of the chronic toxicity in rats was conducted comparatively between lithium N-acetyltaurinate and lithium carbonate:
For three months, rats received doses of 8 mg/Kg and 24 mg/Kg per day of lithium, first in the form or lithium carbonate, and in the form of lithium N-acetyltaurinate.

[9] = in vivo
[10] = Hypothermia after amphetamine-acetyl-taurinate interaction in the mouse; type: in vivo
Experimental: as §5

[11] = Hypothermia in the mouse (rectal temperature); type: in vivo; conditions: for hypothermia / reduction in the rectal temperature: intraperitoneal
Experimental: as §4

[12] = Minimum lethal dose by intravenous route in male rabbits; type: in vivo, male rabbit
Experimental: This reduction of acute toxicity was confirmed by the evaluation of the minimum lethal dose by intraveinous route in male rabbits, comparatively beween lithium citrate and lithium N-acetyltaurinate:
In the same experimental conditions, the minimum lethal dose is 42 mg of lithium with lithium citrate, and 204 mg lithium with lithium N-acetyltaurinate.

[13] = Human observation: neuromuscular hyperexcitability; type: in vivo
Source text: The following observation is given by way of example: a person has been treated for 7 years for a neuromuscular hyperexcitability,with a wide range of neuro-vegetative disorders. They present critical phenomena of lipothymia type, anxious crises with paroxysmal tachycardia. They have had four grand mal epileptic crises.
(§7) A person . . . […] 2 suicide attempts. Predominance of psychomotive inhibition. […] a person . . .

[14] = Human observation: chronic alcoholism with predelirium; type: in vivo
Source text: as §7

[15] = Human observation: bipolar manic-depressive psychosis, lithemia and mood; conditions: one patient
[16] = listed as N-acetyl-taurinate of potassium
[17] = listed as N-acetyl-taurinate of lithium
[18] = listed as N-acetyltaurinate of calcium

For `CC(=O)NCCS(=O)(=O)O` [Example 2, N-acetyl-taurinate of potassium], the amphetaminic excitation [1, 16] was “reduction”, the “investigation behaviour / exploratory activity” value [2, 16] was “increase in the investigation behaviour in the mouse, not proportional to the dose” and the “neuro-muscular activity in six tests” value [3] was “neuro-muscular activity has been demonstrated”. The motive agitation ([4]; dose not stated, listed as N-acetyl-taurinate of potassium) was “slight increase”, the LD50 ([5]; intraperitoneal route, male mouse, mg of compound, listed as N-acetyltaurinate of potassium) was 3234 mg/kg and the LD50 ([5]; oral route, male mouse, mg of compound, listed as N-acetyltaurinate of potassium) was 8170 mg/kg.

In the case of `CC(=O)NCCS(=O)(=O)O` [Example 3, N-acetyl-taurinate of lithium], the amphetaminic excitation [1, 17] is reported as “increase”, the “potentiation of the morphinic agitation” value ([6]; 100 mg/Kg per os, between the 75th and the 90th minute) is reported as 45% and the “effect type in the morphinic agitation test” value (“effect type” for short) ([6]; listed as lithium acetyltaurinate) is reported as “biphasic effect”. For the same compound, the “effect on the agitation caused by morphine sulphate” value ([6]; stronger doses (500 and 2500 mg/Kg) per os) was “antagonistic effect”, the “investigation behaviour / exploratory activity” value [2, 17] was “very clear increase” and the “appetite- and thirst-depressant actions” value [7] was “very clear appetite- and thirst-depressant actions”. For the same compound, the “taking of food and drink consumed” value [7] was “very substantial reduction”, the “toxicity with respect to lithium carbonate (acute and chronic renal)” value ([8]; conclusion from acute and chronic toxicity studies) was “less toxic” and the “tubular renal lesions thirty days after the treatment has stopped” value ([8]; rat, in vivo) was “a reversion of the lesions is noted in all the animals”. For the same compound, the “motility in free condition” value [4] was “very clear increase”, the motive agitation ([4]; dose not stated, listed as N-acetyl-taurinate of lithium) was “increase” and the “acute toxicity compared with that of lithium carbonate” value ([5]; male mice, intraperitoneal and oral routes) was “clearly reduced acute toxicity”. It also gave an LD50 ([5]; mouse, in vivo, ip, LD50) of 3880 mg/kg, an LD50 ([5]; mouse, in vivo, ip, LD50 in the male mouse, intraperitoneal route) of 155 mg/kg and an LD50 ([5]; mouse, in vivo, po, LD50) of 6630 mg/kg. For the same compound, the LD50 ([5]; mouse, in vivo, po, LD50 in the male mouse) was 266 mg/kg, the “stability of the mood” value [9] was “same stability of the mood” and the “hypothermia after simultaneous injection of amphetamine” value ([10]; with 30 mg/kg IP dextrorotatory amphetamine) was “completely eliminated”. For the same compound, the “hypothermia / reduction in the rectal temperature” value [11, 17] was “significant hypothermia” and the minimum lethal dose [12] was 204 mg of lithium.

In the case of `CC(=O)NCCS(=O)(=O)O` [Example 4, N-acetyl-taurinate of magnesium], the amphetaminic excitation ([1]; listed as N-acetyl-taurinate of magnesium) is reported as “reduction”, the “effect type” value ([6]; listed as Mg) is reported as “mono-phasic effect, antagonistic to the morphinic agitation even in small doses” and the motive agitation ([4]; high dose (200 mg/kg)) is reported as “very clear reduction”. The motive agitation ([4]; low dose (100 mg/kg), listed as N-acetyl-taurinate of magnesium, 100 mg/kg) was “increase”, the LD50 ([5]; intraperitoneal route, male mouse, mg of compound, listed as N-acetyltaurinate of magnesium) was 1709 mg/kg and the LD50 ([5]; oral route, male mouse, mg of compound, listed as N-acetyltaurinate of magnesium) was 17400 mg/kg. The “general state of the patient” value ([13]; venous perfusion 1 g first ten days with 1.5 g/day per os) was “complete recovery of the general state”, the critical phenomena ([13]; verified with a recession of 13 months) was “disappearance of the critical phenomena” and the “reduction of rectal temperature after simultaneous injection of amphetamine” value ([10]; with amphetamine, 1 hour after the injection) was “completely eliminated”. For the same compound, the “reduction in the maximum rectal temperature” value ([11]; 2 hours after the injection) was “very considerable reduction”.

In the case of `CC(=O)NCCS(=O)(=O)O` [Example 5, N-acetyl-taurinate of calcium], the amphetaminic excitation [1, 18] is reported as “does not modify”, the “effect type” value ([6]; listed as Ca) is reported as “mono-phasic effect, antagonistic to the morphinic agitation even in small doses” and the “investigation behaviour / exploratory activity” value [2, 18] is reported as “increase”. The motive agitation ([4]; low dose (100 mg/kg), listed as N-acetyltaurinate of calcium, 100 mg/kg) was “reduction”, the LD50 ([5]; intraperitoneal route, male mouse, mg of compound, listed as N-acetyltaurinate of calcium) was 1604 mg/kg and the LD50 ([5]; oral route, male mouse, mg of compound, listed as N-acetyltaurinate of calcium) was 13230 mg/kg. The hyperthermia ([10]; amphetamine interaction) was “does not modify”, the “hypothermia / reduction in the rectal temperature” value [11, 18] was “significant reduction” and the alcoholic weaning ([14]; 1.5 g daily oral) was “upkept”. The intellectual efficiency ([14]; 1.5 g daily oral) was “improved”, the tremblings ([14]; 1.5 g daily oral) was “considerably reduced” and the “effect on attack of mental aberration with convulsions” value ([14]; venous perfusion 1 g per hour for three hours) was “sedation of the attack with a state of euphoria”.

For `O=C(O)O` [Lithium carbonate, reference compound], the “tubular renal lesions (histological study)” value ([8]; rats, 8 and 24 mg/Kg per day of lithium, three months) was “tubular renal lesions appear in all the treated animals”, the “tubular renal lesions thirty days after the treatment has stopped” value ([8]; rats, dose of 24 mg of lithium per Kg, 30 days after stop) was “the lesions persist” and the LD50 ([5]; mouse, in vivo, ip) was 88 mg/kg. For the same compound, the LD50 ([5]; mouse, in vivo, po) was 162 mg/kg, the lithemia ([15]; 1 g/day) was ≤ 0.5 meq/liter and the signs of intolerance ([15]; increased dose) was “permanent tremblings: nauseas, vomitings, hypotension”. For the same compound, the “stability of the mood” value [15] was “a stability of the mood is obtained”.

In the case of `O=C(O)CC(O)(CC(=O)O)C(=O)O` [lithium citrate, reference compound], the minimum lethal dose [12] is reported as 42 mg of lithium.

In the case of `O=C([O-])[C@H](O)[C@@H](O)[C@H](O)[C@H](O)CO.[Li+]` [lithium gluconate, reference compound], the “effect on the morphinic agitation relative to lithium acetyltaurinate at 100 mg/Kg” value ([6]; potentiation in small doses) is reported as “comparable”.

In the case of `NCCS(=O)(=O)O` [taurine], the “effect type” value [6] is reported as “no effect” and the “neuro-muscular activity in six tests” value [3] is reported as “without any activity”.
